Laboratory results taken from ChEMBL document CHEMBL1201862, “PubChem BioAssay data set” (2004).
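Compound exposure: 48 hours, 5 concentrations, 96-well plates. GI50 = concentration required for 50% inhibition of growth.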 The source made the active and inactive calls. Rule as the data show it: active = GI50 up to about 1.1 µM and inactive = higher.

How the values were obtained:
Assay in all cases: NCI anticancer screen, dose series, 48 h
SF-539 = test system: SF-539
UO-31 = test system: UO-31
ACHN = test system: ACHN
HOP-92 = test system: HOP-92
NCI-H460 = test system: NCI-H460
SF-295 = test system: SF-295
HL-60 = test system: HL-60
A498 = test system: A498
COLO 205 = test system: COLO 205
LXFL 529 = test system: LXFL 529
HCT-15 = test system: HCT-15
SK-MEL-28 = test system: SK-MEL-28
OVCAR-4 = test system: OVCAR-4
786-0 = test system: 786-0
OVCAR-8 = test system: OVCAR-8
SNB-75 = test system: SNB-75
UACC-257 = test system: UACC-257
SK-MEL-5 = test system: SK-MEL-5
NCI-H226 = test system: NCI-H226
HOP-62 = test system: HOP-62

Row | Compound | GI50 (SF-539) | GI50 (UO-31) | GI50 (ACHN) | GI50 (HOP-92) | GI50 (NCI-H460) | GI50 (SF-295) | GI50 (HL-60) | GI50 (A498) | GI50 (COLO 205) | GI50 (LXFL 529) | GI50 (HCT-15) [µM] | GI50 (SK-MEL-28) | GI50 (OVCAR-4) | GI50 (786-0) | GI50 (OVCAR-8) | GI50 (SNB-75) | GI50 (UACC-257) | GI50 (SK-MEL-5) | GI50 (NCI-H226) | GI50 (HOP-62)
1 | COc1ccc(S(=O)(=O)NC(C)C(=O)O)cc1 (stereo unspecified) | > 100 µM (inactive) | > 100 µM (inactive) | > 100 µM (inactive) | > 100 µM (inactive) | > 100 µM (inactive) | > 100 µM (inactive) | > 100 µM (inactive) | > 100 µM (inactive) | > 100 µM (inactive) | > 100 µM (inactive) | > 100 | > 100 µM (inactive) | > 100 µM (inactive) | > 100 µM (inactive) | > 100 µM (inactive) | 70.5 µM (inactive) | > 100 µM (inactive) | > 100 µM (inactive) | – | –
2 | CCCCCCC(=O)OC[n+]1ccc2c(C)c3[nH]c4ccc(OC)cc4c3c(C)c2c1 | 0.299 µM (active) | 0.83 µM (active) | 0.0656 µM (active) | 1.18 µM (inactive) | 0.0382 µM (active) | 0.277 µM (active) | 0.245 µM (active) | 0.863 µM (active) | 0.207 µM (active) | 0.133 µM (active) | 0.117 | 1.29 µM (inactive) | 0.679 µM (active) | 0.0708 µM (active) | 0.0752 µM (active) | 1.13 µM (inactive) | 1.01 µM (active) | 1.16 µM (inactive) | 0.476 µM (active) | 0.105 µM (active)
3 | Nc1ccc(C(=O)NN2C(=O)C(Cl)C2c2cccc([N+](=O)[O-])c2)cc1 (stereo unspecified) | 20.7 µM (inactive) | 17.4 µM (inactive) | 20.1 µM (inactive) | 21.4 µM (inactive) | 59.7 µM (inactive) | 20.5 µM (inactive) | 20.7 µM (inactive) | 28.5 µM (inactive) | 19 µM (inactive) | 20 µM (inactive) | 18.6 | 21 µM (inactive) | 16.4 µM (inactive) | 18.7 µM (inactive) | 18.1 µM (inactive) | 18.7 µM (inactive) | 23.1 µM (inactive) | 19.2 µM (inactive) | 20.2 µM (inactive) | 24.6 µM (inactive)
4 | O=c1c2cccc3cccc(c4n1CCN=4)c32 | > 100 µM (inactive) | 41 µM (inactive) | 56 µM (inactive) | > 100 µM (inactive) | 61.1 µM (inactive) | > 100 µM (inactive) | 56.8 µM (inactive) | 40.3 µM (inactive) | > 100 µM (inactive) | > 100 µM (inactive) | 85.7 | > 100 µM (inactive) | 40.8 µM (inactive) | > 100 µM (inactive) | > 100 µM (inactive) | 76.9 µM (inactive) | > 100 µM (inactive) | > 100 µM (inactive) | 56.8 µM (inactive) | 93.3 µM (inactive)
5 | CCCCCCCCCCCCN(O)C(=O)c1ccccc1 | 20.6 µM (inactive) | 24.3 µM (inactive) | 28.2 µM (inactive) | 17.7 µM (inactive) | > 10 µM (inactive) | 29.4 µM (inactive) | 19.1 µM (inactive) | 18.8 µM (inactive) | – | 30.5 µM (inactive) | 9.64 | 36.8 µM (inactive) | – | 16.9 µM (inactive) | 18.9 µM (inactive) | 22.9 µM (inactive) | 18.8 µM (inactive) | > 10 µM (inactive) | – | –
6 | O=C(N/N=C/c1cc(-c2ccccc2Cl)c(-c2ccccc2Cl)o1)c1ccncc1 | > 100 µM (inactive) | – | > 100 µM (inactive) | > 100 µM (inactive) | – | > 100 µM (inactive) | 89.7 µM (inactive) | > 100 µM (inactive) | > 100 µM (inactive) | 96.6 µM (inactive) | – | > 100 µM (inactive) | > 100 µM (inactive) | > 100 µM (inactive) | – | 81.7 µM (inactive) | > 100 µM (inactive) | – | > 100 µM (inactive) | > 100 µM (inactive)
7 | Clc1ccc(C2=NN(c3ccccc3)C3c4cc(Br)ccc4OCC23)cc1 (stereo unspecified) | > 100 µM (inactive) | > 100 µM (inactive) | > 100 µM (inactive) | > 100 µM (inactive) | > 100 µM (inactive) | 86.3 µM (inactive) | 40.8 µM (inactive) | > 100 µM (inactive) | > 100 µM (inactive) | 72.1 µM (inactive) | – | > 100 µM (inactive) | – | > 100 µM (inactive) | > 100 µM (inactive) | > 100 µM (inactive) | 99.1 µM (inactive) | 59.7 µM (inactive) | – | > 100 µM (inactive)
8 | N#CC(N)(C(=O)CCC(=O)Nc1cccc(Cl)c1)c1ccc(Cl)cc1 (stereo unspecified) | > 100 µM (inactive) | > 100 µM (inactive) | > 100 µM (inactive) | > 100 µM (inactive) | > 100 µM (inactive) | > 100 µM (inactive) | > 100 µM (inactive) | > 100 µM (inactive) | > 100 µM (inactive) | > 100 µM (inactive) | > 100 | > 100 µM (inactive) | > 100 µM (inactive) | > 100 µM (inactive) | > 100 µM (inactive) | > 100 µM (inactive) | > 100 µM (inactive) | > 100 µM (inactive) | > 100 µM (inactive) | > 100 µM (inactive)
9 | COC(=O)C(C(=O)C(=O)Nc1cccc(OC)c1)c1cnc2ccccc2n1 (stereo unspecified) | > 100 µM (inactive) | > 100 µM (inactive) | > 100 µM (inactive) | > 100 µM (inactive) | > 100 µM (inactive) | > 100 µM (inactive) | > 100 µM (inactive) | > 100 µM (inactive) | > 100 µM (inactive) | > 100 µM (inactive) | > 100 | > 100 µM (inactive) | > 100 µM (inactive) | > 100 µM (inactive) | > 100 µM (inactive) | > 100 µM (inactive) | > 100 µM (inactive) | > 100 µM (inactive) | > 100 µM (inactive) | > 100 µM (inactive)
10 | COC(=O)/C(Cl)=C1/CC1COCc1ccccc1 (stereo unspecified) | 23.8 µM (inactive) | 28.8 µM (inactive) | 25.4 µM (inactive) | 22.9 µM (inactive) | 43.4 µM (inactive) | 53.5 µM (inactive) | 13.6 µM (inactive) | 22.6 µM (inactive) | 21.2 µM (inactive) | 17.1 µM (inactive) | 17.1 | 21.8 µM (inactive) | 31 µM (inactive) | 19.7 µM (inactive) | 30.5 µM (inactive) | 47.8 µM (inactive) | 34.7 µM (inactive) | 24.1 µM (inactive) | 32.3 µM (inactive) | > 100 µM (inactive)
11 | COc1cccc2c1C(=O)c1c(O)c3c(c(O)c1C2=O)C[C@@](O)(C(=O)CO)C[C@@H]3OC1CC(N2CCOCC2C#N)C(O)C(C)O1 (stereo partly specified) | 2.41e-05 µM (active) | 5.52e-05 µM (active) | 3.27e-05 µM (active) | 9.53e-05 µM (active) | 8.17e-06 µM (active) | 1.82e-05 µM (active) | 2.02e-05 µM (active) | 2.58e-05 µM (active) | 0.000136 µM (active) | 0.001 µM (active) | 4.51e-05 | 9.73e-05 µM (active) | 2.18e-05 µM (active) | 0.001 µM (active) | 5.18e-05 µM (active) | 1.37e-05 µM (active) | 5.97e-05 µM (active) | 3.72e-05 µM (active) | 1.46e-05 µM (active) | 2.32e-05 µM (active)
